Assay results published in patent publication US12502369B2, “Methods of cancer treatment” (K-GEN, INC., priority 2015, dated 2025).
Entries after “also recorded” stand apart in the source; their conditions may differ. Read-outs that look alike come from different tables or passages of the source.

How the values were obtained:
Type in all cases: cell-based
CaMKii (Thr286) = experiment: CaMKii phosphorylation in pancreatic cancer cell lines, Western blot; details: Panc1 or Panc2.13 cells; 24 or 48 hours; K-101A 0.5 and 2.5 μM, K-102 0.1 and 0.5 μM
Procedure: Cells were lysed in a protein lysis buffer (1 ml of 10×TNE [20 mL 1M Tris pH7.5; 30 mL 5M NaCl; 2 mL 0.5M EDTA; 48 mL d2H2O], 1 ml of 10% NP40, 7.7 mL of dH2O, 100 μL of 10× Protease inhibitors, 100 μL of 10× Phosphatase inhibitors, and 10 μl DTT). Protein quantification, SDS-PAGE, and Western blot procedures were performed as described in Example 2. […] The effect was more apparent at 48 hours. Phospho-CaMKii (T286) is a marker for activation of CaMKii kinase in the Wnt/Ca^2′ signaling pathway when K-Ras and CaM are dissociated (Wang et al., 2015, Cell. 163(5):1237-51).

[1] = test system: PKC isoforms in Panc2.13 cells; experiment: Time course of activation of PKC isoforms in Panc2.13; details: extended periods (16 h and 24 h)
Procedure: Cells of pancreatic cancer cell line Panc2.13 were seeded as described above, and the cell confluence was between 40-80% the next day. […] Phosphorylation at multiple PKC isoforms, such as Ser744/748 or Ser916 for PKCμ, phosphorylation at Thr638/641 for PKCα/β, phosphorylation at Ser660 for PKCβII (pan-PKC), phosphorylation at Ser643/676 for PKCδ/θ, and phosphorylation at Thr505 for PKCδ, were detected.

HT29 = experiment: Proliferation assay (CellTiter Glo), HT29; details: HT29 (WT K-ras)
Procedure: (§1) Briefly, cells at a density of 1,000-10,000 cells/well were seeded in 96-well plates and incubated at 37′C for 24 hours. A series of 9 different concentrations of compound stocks (500×) were created by 3-fold serial dilution in DMSO. These compounds were further diluted in culture media and then added to cells so that the final DMSO concentration was 0.2%. After 96 hours of incubation, 50 μL of CellTiter Glo reagent (Promega) was added to each well and luminescence was measured after 10 minutes using EnVision (PerkinElmer). […] The dose range for most compounds was 4.6 nM-30 μM. The dose ranges for some compounds were adjusted downward to 0.46 nM-3 μM or 0.08 nM-0.5 μM or 0.03 nM-0.2 μM. Luminescence from cells treated with […] alone was set as Max and % of inhibition was calculated as follows: Inhibition %=(Max-Sample value)/Max*100. Data was analyzed using XL-fit software (ID Business Solutions Ltd.) and EC50, relative EC50, and % of top inhibition were calculated.
(§2) Other cancer cell lines having wild-type K-ras status and K-ras mutation at G12 were also screened using the PKC activator compounds. […] K-104 was tested in a range of 0.03 nM-0.2 μM. […] The dose ranges were adjusted downward to 0.46 nM-3 μM for K-102 and 0.08 nM-0.5 μM for K-103 for some cell lines.

HL60 = experiment: Proliferation assay (CellTiter Glo), HL60; details: for Top inhibition %: 96 hours
Procedure: as §1, with “calculated. The results are shown in Tables 3-6 for pancreatic cancer, lung cancer, colon/gastric cancer, and leukemia cell lines.” for “calculated.”

Panc2.13 = experiment: Proliferation assay (CellTiter Glo), Panc2.13; details: for Top inhibition %: 96 hours
Procedure: as §1, with “calculated. The results are shown in Tables 3-6 for pancreatic cancer, lung cancer, colon/gastric cancer, and leukemia cell lines.” for “calculated.”

lymphoma cell lines = experiment: Proliferation assay, 9 lymphoma cell lines; details: for IC50: among the sensitive lymphoma cell lines, read-out: IC50 ranges
Procedure: PKC activators were tested in 9 lymphoma cell lines (Table 10). Proliferation assays were performed as described in Example 1.

CCRF-CEM = experiment: Proliferation assay (CellTiter Glo), CCRF-CEM; details: for Top inhibition %: 96 hours
Procedure: as §1, with “calculated. The results are shown in Tables 3-6 for pancreatic cancer, lung cancer, colon/gastric cancer, and leukemia cell lines.” for “calculated.”

H1915 = experiment: Proliferation assay (CellTiter Glo), H1915; details: H1915 (WT K-ras)
Procedure: as §1, §2

[2] = test system: PKCδ, PKCμ, c-Raf in xMiaPaCa-2, MiaPaCa-2, Panc6.03, Panc1; experiment: Activation of PKC isoforms in pancreatic cancer cell lines, Western blot
PKCμ = PKCμ phosphorylation in A549, HCT116, SW620, Panc02.13 cells, Western blot; details: 30 minutes
Procedure: Non-cancerous lung fibroblast cell line HFL-1 or cancer cells (2-8 million cells) were seeded in 10 cm dishes and grown overnight so that the cells were about 40-80% confluent before treatment with the compound. Cells were then treated with different drugs at indicated concentrations (see descriptions for FIG. 11 and FIG. 12) for 30 minutes. Cell lysate preparation, protein quantitation, SDS-PAGE, and Western blotting procedures are described in Example 2 and 4. Primary antibodies used in this Example and later Examples of this application are shown in Table A. Secondary antibodies Anti-mouse IgG HRP conjugate or Anti-rabbit IgG HRP conjugate (dilutions from 1:2000-1:10000) were used. Western blot membranes were scanned using Imagequant LAS4000 (GE).

[3] = absolute EC50, 96 hours, read-out: Ab EC50
[4] = relative EC50, 96 hours, read-out: Re EC50
[5] = 9 lymphoma cell lines of Table 10

Structure (SMILES) | phosphorylation on CaMKii at Thr286 (CaMKii (Thr286)) | Top inhibition % (HT29) | Top inhibition % (HL60) | Top inhibition % (Panc2.13) | EC50 (Panc2.13; [3]) | EC50 (Panc2.13; [4]) | sensitivity of lymphoma cell lines (lymphoma cell lines; [5]) | sensitivity of lymphoma cell lines (lymphoma cell lines; Daudi and Raji) | IC50 (lymphoma cell lines) | Top inhibition % (CCRF-CEM) | Top inhibition % (H1915) | other results
CC(=O)O[C@@]12C[C@@H](C)[C@]3(O)C4C=C(C)C(=O)[C@@]4(O)CC(CO)=C[C@H]3[C@@H]1C2(C)C (some centres unmarked) [Compound K-101A, Prostratin] | induced phosphorylation | 12.8% | 61.3% | 43.4% | > 30000 nM | 17 nM | Seven lymphoma cell lines were very sensitive | not sensitive | 77 to 284 nM | 35.9% | 27.7% | reducing the phosphorylation at Ser643/676 of PKCδ/θ ([1]; K101A 1 μM versus K102, K103): more potent; EC50 (HL60; Homo sapiens, HL-60, absolute EC50, 96 hours, read-out: Ab EC50): 470 nM; EC50 (HL60; Homo sapiens, HL-60, relative EC50, 96 hours, read-out: Re EC50): 400 nM; EC50 (CCRF-CEM; Homo sapiens, absolute EC50, 96 hours, read-out: Ab EC50): > 30000 nM; EC50 (CCRF-CEM; Homo sapiens, relative EC50, 96 hours, read-out: Re EC50): 51 nM; phosphorylation of c-Raf at Ser338 [2]: induced phosphorylation; phosphorylations of PKCδ at Thr505 and PKCμ at Ser744/748 [2]: increased
CC(=O)OCC1=C[C@H]2[C@@H]3C(C)(C)[C@]3(OC(C)=O)C[C@@H](C)[C@]2(O)C2C=C(C)C(=O)[C@@]2(O)C1 (some centres unmarked) [Compound K-101E] | – | 31.7% | 63.4% | 49.8% | > 30000 nM | 44 nM | – | – | – | 34.3% | 35.6% | EC50 (HL60; [3]): 3050 nM; EC50 (HL60; [4]): 1920 nM; EC50 (CCRF-CEM; [3]): > 30000 nM; EC50 (CCRF-CEM; [4]): 270 nM
C/C=C(/C)C(=O)O[C@H]1C(C)=C[C@]23C(=O)[C@@H](C=C(CO)[C@@H](O)[C@]12O)[C@H]1[C@@H](C[C@H]3C)C1(C)C [Compound K-102, Ingenol-3-angelate, reference compound] | induced phosphorylation | – | – | – | – | – | Seven lymphoma cell lines were very sensitive | not sensitive | 0.8 to 5 nM | – | – | reducing the phosphorylation at βII Ser660 of PKC (pan), to a lesser extent Thr638/641 of PKCα/β ([1]; K102 0.1 μM, K103 0.01 μM versus K101A): more potent; PKCμ activation, phosphorylation at Ser744/748 (PKCμ): observed for all four cancer cell lines; PKCμ activation, phosphorylation at Ser916 (PKCμ): observed primarily in cell lines A549 and Pan 02,13; also recorded: observed primarily in cell lines A549 and Panc02.13; phosphorylations of PKCδ at Thr505 and PKCμ at Ser744/748 ([2]; all four pancreatic cell lines, K101A 1 μM, K102 0.1 μM): increased; phosphorylation of c-Raf at Ser338 ([2]; pancreatic cell lines, K101A 1 μM, K102 0.1 μM): induced phosphorylation
